Results taken from patent US10660967B2, “Curcumin conjugates and methods of use thereof” (priority 2016, dated 2020).
Like-named read-outs stand apart in the source and are kept apart here.

Assays:
[1] = tested on: Salmonella typhi ATCC19430; experiment: Antimicrobial MIC, agar dilution; assay type: cell-based; details: Salmonella enterica, read-out: Minimum inhibitory concentration (MIC)
[2] = tested on: Pseudomonas aeruginosa ATCC27853; experiment: Antimicrobial MIC, agar dilution
[3] = tested on: MCF7 (breast) carcinoma cell line; experiment: Anti-tumor properties, MTT; assay type: cell-based; details: Homo sapiens, MCF7; read-out: IC50 (μM) MCF7 (breast)
Outline: (§1)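 Cells seeded at 10×10^3 per well for 24 h, then exposed to compound in serum-free medium (final up to 100 μM, 0.5% DMSO vehicle) for 72 h in triplicate. Viability by MTT reduction (4 h, SDS solubilised), absorbance 595 nm/ref 620 nm; IC50 from survival curves.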

[4] = tested on: HCT116 (colon) carcinoma cell line; experiment: Anti-tumor properties, MTT; assay type: cell-based; details: Homo sapiens, HCT-116; read-out: IC50 (μM) HCT116 (colon)
Outline: as §1

[5] = tested on: HepG2 (hepatocellular) carcinoma cell line; experiment: Anti-tumor properties, MTT; assay type: cell-based; details: Homo sapiens, HepG2; read-out: IC50 (μM) HepG2 (liver)
Outline: as §1

[6] = tested on: Streptococcus pyogenes ATCC19615; experiment: Antimicrobial MIC, agar dilution
gastric mucosa = experiment: Ulcerogenic liability (ulcer index); assay type: in vivo, albino mice; details: orally, three successive days, 10 mg/kg indomethacin mol equivalent; for Number of animals with ulcer: 6 animals per group; for Ulcer index: sum of the three values
Outline: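 Albino mice were fasted 18 h before dosing, and controls got saline with a few drops of Tween 80. Gastric mucosa was checked under a 10× lens for lesions and erosions. The ulcer index combines percentage incidence divided by 10, mean ulcers per stomach and mean severity.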

[7] = tested on: Staphylococcus aureus ATCC25923; experiment: Antimicrobial MIC, agar dilution
[8] = tested on: PC3 (prostate) carcinoma cell line; experiment: Anti-tumor properties, MTT; assay type: cell-based; details: Homo sapiens
[9] = tested on: PHA-stimulated splenocytes; experiment: Proliferative response of PHA-stimulated splenocytes (MTT assay); assay type: cell-based; details: PHA 5 μg/ml, 72 hr; compounds at 5 μM (method says 10 μM); ratio of O.D. versus vehicle control
Outline: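 Freshly prepared splenocytes (1×10^6 cells/well) were cultured for 72 h at 37° C with compound at 10 μM final, with or without PHA (5 μg/ml). Viability was read by MTT (4 h), with absorbance at 570 nm against 690 nm reference. Stimulation index is the OD ratio of treated versus vehicle cultures.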

[10] = tested on: A-549 (lung) carcinoma cell line; experiment: Anti-tumor properties, MTT; assay type: cell-based; details: Homo sapiens, A549
[11] = tested on: lipopolysaccharide-stimulated peritoneal macrophages; experiment: Production of nitric oxide by lipopolysaccharide-stimulated peritoneal macrophages (Greiss reagent); assay type: cell-based; design: Potency (%): % inhibition of nitric oxide production relative to lipopolysaccharide-stimulated macrophages: concentration or dose not given beside the values; details: LPS-stimulated peritoneal macrophages; for Nitric oxide (nitrite) concentration, μM (average ± SD): 24 h, nitrite by Greiss reagent
Outline: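 Macrophages in nitrite-free medium with 0.1% BSA were stimulated with LPS at 0.5–10 ng/ml, some wells also receiving epinephrine, norepinephrine or dopamine at […], for 24 h at 37° C. Nitrite in supernatants was measured with Greiss reagent, 15 min at room temperature, absorbance 532 nm.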

[12] = tested on: Candida albicans (local isolate); experiment: Antimicrobial MIC, agar dilution; details: Candida albicans, read-out: Minimum inhibitory concentration (MIC)
[13] = ATCC27853, 18 h, read-out: Minimum inhibitory concentration (MIC)
[14] = ATCC27853, read-out: Minimum inhibitory concentration (MIC)
[15] = ATCC19615, 18 h, read-out: Minimum inhibitory concentration (MIC)
[16] = ATCC19615, read-out: Minimum inhibitory concentration (MIC)
[17] = ATCC25923, 18 h, read-out: Minimum inhibitory concentration (MIC)
[18] = ATCC25923, read-out: Minimum inhibitory concentration (MIC)

## COc1cc(/C=C/C(=O)CC(=O)/C=C/c2ccc(OC(=O)[C@@H](C)N)c(OC)c2)ccc1OC(=O)[C@@H](C)N.Cl.Cl [HCl-D-Ala-Cur, (2R,2′R)-1,1′-((((1E,6E)-3,5-dioxohepta-1,6-diene-1,7-diyl)bis(2-methoxy-4,1-phenylene))bis(oxy))bis(1-oxopropan-2-aminium) chloride]
[1]; 18 h
  MIC: 0.25 µg/mL
[1]
  MIC: 0.428 µM
[2]; [13]
  MIC: 1 µg/mL
[2]; [14]
  MIC: 1.71 µM
[3]
  IC50: 10.4 µM
[4]
  IC50: 39.2 µM
[5]
  IC50: 34.3 µM
[6]; [15]
  MIC: 0.25 µg/mL
[6]; [16]
  MIC: 0.428 µM
Gastric mucosa
  % Incidence of ulcer divided by 10: 0
  Average of ulcer number: 0
  Average severity of ulcer: 0
  Number of animals with ulcer: 0/6
  Ulcer index: 0
[7]; [17]
  MIC: 0.125 µg/mL
[7]; [18]
  MIC: 0.214 µM
[8]
  IC50: 30.7 µM
[9]
  Stimulation Index (average ± SD): 1.35 ± 0.07
[10]
  IC50: 30.9 µM
[11]
  Potency (%): % inhibition of nitric oxide production relative to lipopolysaccharide-stimulated macrophages: 41.26%
  Nitric oxide (nitrite) concentration, μM (average ± SD): 16.04 ± 0.46 µM
[12]; 18 h
  MIC: 0.125 µg/mL
[12]
  MIC: 0.214 µM

## COc1cc(/C=C/C(=O)CC(=O)/C=C/c2ccc(OC(=O)CN)c(OC)c2)ccc1OC(=O)CN.Cl.Cl [HCl-Gly-Cur, 2,2′-((((1E,6E)-3,5-dioxohepta-1,6-diene-1,7-diyl)bis(2-methoxy-4,1-phenylene))bis(oxy))bis(2-oxoethan-1-aminium) chloride]
[1]; 18 h
  MIC: 0.25 µg/mL
[1]
  MIC: 0.45 µM
[2]; [13]
  MIC: 1 µg/mL
[2]; [14]
  MIC: 1.8 µM
[3]
  IC50: 9.15 µM
[4]
  IC50: 36.2 µM
[5]
  IC50: 39.8 µM
[6]; [15]
  MIC: 0.25 µg/mL
[6]; [16]
  MIC: 0.45 µM
Gastric mucosa
  % Incidence of ulcer divided by 10: 0
  Average of ulcer number: 0
  Average severity of ulcer: 0
  Number of animals with ulcer: 0/6
  Ulcer index: 0
[7]; [17]
  MIC: 0.5 µg/mL
[7]; [18]
  MIC: 0.9 µM
[8]
  IC50: 38.7 µM
[9]
  Stimulation Index (average ± SD): 0.99 ± 0.16
[10]
  IC50: 18.9 µM
[11]
  Potency (%): % inhibition of nitric oxide production relative to lipopolysaccharide-stimulated macrophages: 49.98%
  Nitric oxide (nitrite) concentration, μM (average ± SD): 13.66 ± 1.05 µM
[12]; 18 h
  MIC: 1 µg/mL
[12]
  MIC: 1.8 µM

## COc1cc(/C=C/C(=O)CC(=O)/C=C/c2ccc(OC(=O)[C@@H](N)CCSC)c(OC)c2)ccc1OC(=O)[C@@H](N)CCSC.Cl.Cl [HCl-L-Met-Cur, (2S,2′S)-1,1′-((((1E,6E)-3,5-dioxohepta-1,6-diene-1,7-diyl)bis(2-methoxy-4,1-phenylene))bis(oxy))bis(4-(methylthio)-1-oxobutan-2-aminium) chloride]
[1]; 18 h
  MIC: 0.125 µg/mL
[1]
  MIC: 0.178 µM
[2]; [13]
  MIC: 0.5 µg/mL
[2]; [14]
  MIC: 0.711 µM
[3]
  IC50: 11.3 µM
[4]
  IC50: 61.9 µM
[5]
  IC50: 39.8 µM
[6]; [15]
  MIC: 0.5 µg/mL
[6]; [16]
  MIC: 0.711 µM
Gastric mucosa
  % Incidence of ulcer divided by 10: 0
  Average of ulcer number: 0
  Average severity of ulcer: 0
  Number of animals with ulcer: 0/6
  Ulcer index: 0
[7]; [17]
  MIC: 0.25 µg/mL
[7]; [18]
  MIC: 0.355 µM
[8]
  IC50: 42.6 µM
[9]
  Stimulation Index (average ± SD): 1.49 ± 0.06
[10]
  IC50: 32.8 µM
[11]
  Potency (%): % inhibition of nitric oxide production relative to lipopolysaccharide-stimulated macrophages: 37.94%
  Nitric oxide (nitrite) concentration, μM (average ± SD): 16.95 ± 0.40 µM
[12]; 18 h
  MIC: 0.5 µg/mL
[12]
  MIC: 0.711 µM
